Data from US8440617B2, “Hyperbaric treatment in wound healing” (The Trustees of the University of Pennsylvania, priority 2007, dated 2013).
Entries after “also recorded” stand apart in the source; their conditions may differ.

Key:
[1] = Induction of diabetes with STZ, serum glucose by glucometer; type: in vivo, mouse; conditions: 60 mg/kg i.p. daily for 5 d
Method: (§1) Tie2-GFP, wild-type or chimeric FVB mice at 6-12 wk of age were treated with STZ (Sigma-Aldrich) to induce diabetes. Mice were rendered diabetic by i.p. administration of 60 mg/kg STZ in 50 mM sodium citrate, pH 4.5, daily for 5 d. Control mice were treated with daily injections of citrate buffer. Serum glucose was measured from the mouse tail vein using a glucometer. Once serum glucose reached 250 mg/dL, mice were followed with daily measurements for 1 wk prior to use in experiments. Serum glucose levels in STZ mice averaged 461 mg/dL with a range of 372-520 mg/dL, while control mice serum glucose mean level was 120 mg/dL with a range of 94-135 mg/dL. Wounds were induced on the ventral surface of the mouse thigh using a 4 mm punch biopsy. Full-thickness skin was removed, exposing the underlying muscle.

stem cell factor (SCF) = assay: Plasma stem cell factor by Quantikine M immunoassay in mice (Table I); type: in vivo, mouse; conditions: for Plasma SCF if mice pre-treated with L-NAME: L-NAME pre-treatment
[2] = system: NO synthesis in bone marrow (NOS); assay: Real-time bone marrow NO measurement with NO microelectrode during HBO; type: in vivo, mouse
Method: (§2) For HBO treatment, mice were placed in an animal hyperbaric chamber (Reneau Corp.) and subjected to 100% oxygen at 2.4 atmospheres absolute (ATA) for 90 min (Davis Wound Healing Protocol). To measure continuous, real-time BM NO levels, NO microelectrodes was inserted into the femoral marrow cavity as previously described. An osteotomy was created on the patellar surface of the murine femur using a 25 G beveled needle, allowing the electrode to be lowered into the marrow space when the animal was placed in the hyperbaric chamber. In some mice, pretreatment with L-NAME (40 mg/kg i.p.) (Sigma-Aldrich) was given 2 h prior to exposure to HBO.
In early studies, it was hypothesized that HBO2 augments stem cell mobilization because it stimulates •NO synthesis in the bone marrow, as •NO is known to play a central role with stem cell release from bone marrow. […] Mice were placed in a hyperbaric chamber where, while breathing air, baseline measurements were obtained. The chamber was then flushed with 100% O2 and compressed to 2.4 ATA O2.
Physiologically, the NO-mediated EPC release into circulation occurs in response to tissue-level hypoxia, although this compensatory response is inadequate in the setting of diabetes and results in severe defects in neovascularization and wound healing. […] Therefore, it was sought to utilize HBO as a tool to augment EPC release into circulation and further study both EPC mobilization and wound-homing mechanisms in the presence of diabetes. The goal was to determine whether hyperoxia stimulates NO production in the BM of diabetic mice via a NOS-mediated pathway and whether this pathway is impaired in diabetes. To test this hypothesis, Nafion polymer—coated NO microsensors were inserted into the femur BM space of both STZ induced diabetic and nondiabetic mice to measure real-time NO levels within the BM prior to and is during HBO-induced hyperoxia. […] It was speculated, that this was likely due to a compensatory effect from other NOS isoforms, and therefore the level of both iNOS and nNOS was examined in diabetic mice. […] However, no observation was made of any changes in the phosphorylation of these NOS isoforms.

[3] = system: EPC (cells co-expressing CD34 and Sca-1); assay: EPC mobilization (CD34+/Sca-1+ cells in peripheral blood) in mice exposed to HBO2; type: in vivo, mouse; conditions: wild-type mice, 40 mg/kg i.p. 2 hours prior to pressurization
Method: In the initial studies searching for the mechanisms for EPC mobilization with HBO2 EPC (assessed as cells that co-expressed CD34 and stem cell antigen-1 (Sca-1)) were also evaluated in peripheral blood of mice. […] In preliminary studies, mice were exposed to HBO2 for 90 minutes at up to 2.8 ATA and also to a pressure control, 2.8 ATA pressure using a gas containing 7.5% O2 (so that O2 partial pressure was the same as ambient air, 0.21 ATA O2). In select studies, mice were pre-treated with intraperitoneal L-nitroarginine methyl ester (L-NAME, to inhibit nitric oxide synthase [NOS]), 40 mg/kg i.p. administered 2 hours prior to pressurization). In anesthetized mice, blood was obtained by aortic puncture and bone marrow was harvested by clipping the ends off a tibia and flushing the marrow cavity with 1 ml PBS. Exposure to 2.8 ATA O2 (but not 100% O2 at ambient pressure or 2.8 ATA pressure at a total O2 partial pressure of only 0.21 ATA O2) increased EPC mobilization immediately after treatment, as well as 16 hrs post-treatment, and with repeated treatments (FIG. 4).
There is precedence for rapid mobilization of stem cells from bone marrow, but most emigration is believed to occur after a period of cell proliferation within the marrow niche.

[4] = system: circulating EPCs (CXCR4+/VEGFR2+, Tie2+/VEGFR2+); assay: Circulating EPCs by flow cytometry in STZ-diabetic mice; type: in vivo, mouse
Method: as §1, §2
Mobilization of EPCs into circulation was studied using flow cytometry as previously described. Cells isolated from mice were incubated with various Abs (BD Biosciences). Isotype matched mouse immunoglobulins served as controls. One million viable cells were analyzed per sample using an LSR2 multicolor flow cytometer (BD Biosciences). Data was analyzed using FlowJo software (Treestar, Inc.).
Physiologically, increased levels of BM NO result in activation of MMP-9 and conversion of kit ligand to its soluble form, ultimately generating EPC release into circulation. To study the effects of the hyperoxia-induced rise in NO levels in the marrow cavity on mobilization of EPCs into circulation, peripheral blood from diabetic mice was analyzed for EPCs using flow cytometry. A determination of whether hyperoxia, induced by HBO, increases the number of circulating EPCs in the peripheral blood of diabetic mice was made. Specifically, peripheral blood of diabetic mice was examined 18 h after a single HBO treatment. After excluding dead DAPI^+labeled cells, candidate lymphocytes, identified by their typical appearance on forward and side scatter, were gated and CD45^+/CD3^+cell populations were excluded. […] Therefore, several marker combinations were used to quantitate circulating EPCs. […]

ischemic hindlimb wounds = assay: Hindlimb ischemia (femoral ligation/excision): perfusion, wound BMD EPC and wound healing with daily HBO2; type: in vivo, mouse; conditions: 40 mg/kg i.p.
Method: In addition, it was observed that HBO2 daily treatments (2.4ATA 100% O2 for 90 min) improved hindlimb perfusion by Laser Doppler Imaging (LDF) after femoral ligation/excision (FIG. 6) and increased the bone marrow-derived (BMD) EPC within the incisional wounds, 3 d post-wounding (with 4 HBO2 treatments) (FIG. 7). By day 8 after wounding, ischemic excisional punch biopsy wounds treated daily with HBO2 healed faster (FIG. 8). […] Each day animals were harvested, and blood (retro-orbital bleeding) and bone marrow (flushing of tibias and femurs) collected (3 mice for each time point had bone marrow collected and 5 mice for each time point had blood collected). VEGFR-2 (kdr) mRNA was semi-quantitated by RT PCR.

[5] = system: wound EPCs (GFP+/VEGFR2+); assay: EPC homing to wounds in diabetic GFP bone marrow chimeric mice; type: in vivo, mouse
Method: All procedures were done with approval from the University of Pennsylvania Institutional Animal Care and Use Committee (IACUC). 6-12 wk-old FVB wild-type mice (FVB/NJ), GFP (FVB/Tg) and Tie2-GFP (Tg(TIE2GFP)87 Sato/J) were purchased from The Jackson Laboratory. For all surgical procedures, mice were anesthetized with an i.p. injection of 80 mg/kg of ketamine (Phoenix Scientific, Inc.) and 20 mg/kg xylazine (Vedco Inc.). For BM transplantation experiments, 1×10^7 BM cells from GFP mice were transplanted to γ-irradiated (900 Rad) FVB wild type mouse via tail vein. […] For local wound SDF-1α injection, SDF-1α protein (R&D Systems) was reconstituted in PBS and injected into the wound base (25 μg/Kg).
For immunostaining, paraffin embedded serial sections (5 μm) were first underwent standard deparaffinizing and rehydration procedures and then probed with various Abs. To assess wound SDF-1α^+ cells, sections were double-stained with HTC-conjugated anti-SDF-1α and PE-conjugated different tissue-specific Abs (eBiosciences). To detect blood vessels in wound, sections were stained with HTC-conjugated anti-VEGFR2Ab. […] Tissue sections were analyzed using fluorescence microscopy and ImageJ (NIH) software to quantitate fluorescent intensity. In trichrome stained slides, blue stain (collagen content) was also quantitatively analyzed by ImageJ. […]

[6] = system: diabetic cutaneous wounds; assay: Peripheral wound healing (wound closure) in diabetic mice; type: in vivo, mouse; conditions: diabetic mice, 6 d post-wounding, FIG. 17A
Method: as §1
Initial wound surface area was recorded and wounds were then followed serially with daily digital photographs using an Olympus digital camera. Photographs contained an internal scale to allow for standard calibration of measurements. Wound area was quantified using ImageJ software. Wound area was expressed as the percentage of original wound size. Wounds were followed for 6 d and mice were sacrificed at the conclusion of the experiment.
EPCs play a key role in vasculogenesis and cutaneous tissue repair. It was hypothesized that increased numbers of EPCs in circulation, along with enhanced EPC homing to wounds, results in improved wound healing in diabetes. Diabetic wound closure rates were studied, in response to treatment with HBO and SDF-1α alone and in combination. Wounded diabetic mice underwent daily wound injections with SDF-1α, PBS, HBO, or SDF-1α+HBO treatments. […] This healing response was greater than the response to either treatment modality alone. In addition, histochemical analysis was conducted to examine blood vessel density (VEGFR2 staining), cellularity and stromagenesis (H&E staining), and extracellular constitution (trichrome staining) in wound tissues. […]

[7] = Mouse serum SDF-1α ELISA after wound injection; type: in vivo; conditions: 2 h following wound injection of SDF-1α
Method: Mouse serum SDF-1α concentration was measured by Quantikine® mouse SDF-1α ELISA kit (R&D Systems) based on manufacturer's protocol.

wound granulation tissue = assay: Histochemistry of diabetic wound tissue (VEGFR2 vessel density, H&E, trichrome collagen); type: in vivo, mouse; conditions: diabetic wounds at d 6, FIG. 17D-E
From the text: (§3) For immunostaining, paraffin embedded serial sections (5 μm) were first underwent standard deparaffinizing and rehydration procedures and then probed with various Abs. To assess wound SDF-1α^+ cells, sections were double-stained with HTC-conjugated anti-SDF-1α and PE-conjugated different tissue-specific Abs (eBiosciences). To detect blood vessels in wound, sections were stained with HTC-conjugated anti-VEGFR2Ab. For examination of wound EPC recruitment in BM transplantation experiment, sections were double-stained with FITC-GFP and PE-VEGFR2 (BD Biosciences). Nuclei were counterstained with Hoescht dye. Masson's trichrome staining and H&E staining were performed using standard method and all reagents were from Sigma-Aldrich. Tissue sections were analyzed using fluorescence microscopy and ImageJ (NIH) software to quantitate fluorescent intensity. In trichrome stained slides, blue stain (collagen content) was also quantitatively analyzed by ImageJ.
EPCs play a key role in vasculogenesis and cutaneous tissue repair. It was hypothesized that increased numbers of EPCs in circulation, along with enhanced EPC homing to wounds, results in improved wound healing in diabetes. Diabetic wound closure rates were studied, in response to treatment with HBO and SDF-1α alone and in combination. Wounded diabetic mice underwent daily wound injections with SDF-1α, PBS, HBO, or SDF-1α+HBO treatments. […]

SDF-1α in wound tissue = assay: Wound SDF-1α level (immunostaining); type: in vivo, mouse; conditions: after SDF-1α injection, compared to nondiabetic wound
From the text: as §3

## CN(N=O)C(=O)N[C@@H](C=O)[C@@H](O)[C@H](O)[C@H](O)CO [STZ, streptozocin]
[1]
  Serum glucose, average: 461 mg/dL
  Serum glucose, range: 372 to 520 mg/dL

## COC(=O)[C@@H](N)CCCNC(=N)N[N+](=O)[O-] [L-NAME, L-nitroarginine methyl ester]
Stem cell factor (SCF); air-breathing (control) mice
  Plasma SCF if mice pre-treated with L-NAME: 39.4 ± 1.9 pg/mL
Stem cell factor (SCF); then 2.8 ATA O2, 16 hours after
  Plasma SCF if mice pre-treated with L-NAME: 42.4 ± 2.5 pg/mL
Stem cell factor (SCF); mouse, in vivo
  HBO2-induced SCF elevation with L-NAME: blocked
[2]; 40 mg/kg ip before 2.4 ATA O2
  NO signal in bone marrow with L-NAME pre-treatment: no •NO signal was detected
[2]; diabetic and nondiabetic mice
  hyperoxia-induced increases in BM NO production after pretreatment: completely inhibited; also recorded: Complete inhibition
[3]
  EPC mobilization with L-NAME injected before HBO2: did not occur
[4]; mouse, in vivo
  EPC mobilization following HBO in L-NAME pre-treated animals: No increase; also recorded: inhibited
Ischemic hindlimb wounds
  HBO2 wound healing improvements with L-NAME prior to HBO2: not observed

## SDF-1α
[5]; diabetic chimeric mice, 3 d of treatment, vs untreated diabetic mice
  increase in wound-level EPCs (GFP+/VEGFR2+): 3 fold
[5]; diabetic mice
  EPCs recruited/homing to wound tissue: significant increase
[6]
  wound healing rates compared with PBS treated controls: statistically improved
[7]
  systemic (peripheral blood) SDF-1α concentration: increased
Wound granulation tissue
  collagen deposit and vessel density: significant increase
[4]; wounded diabetic mice, 48 h post-wounding, FIG. 15A
  circulating EPCs versus other groups / PBS: statistically significant increase
[4]; wounded diabetic mice, daily treatment, 48 h post-wounding
  increase in circulating EPCs (CXCR4+/VEGFR2+): 2 fold
SDF-1α in wound tissue
  local SDF-1α level in diabetic wound: dramatically increased
